In US20230040125A1, “TARGETING THE INTRINSIC APOPTOTIC MACHINERY IN GLIOBLASTOMA” (The Regents of The University Of California, priority 2019, published 2023):
“Also recorded” adds a separate entry of the source.

Tested on: GBM lines
Test: TMZ/IR titrated across a panel of GBM lines with a fixed dose of BCLXL inhibitor, cell death
Format: cell-based
Details: TMZ/IR titrated with a fixed dose of A1155463
Excerpt: In the triplet of histogram bars for each dosage, the left bar represents all data (TMZR/IR alone, n=17), the center bar represents p53 WT+BCLXL In. (n=12), and the right bar represents p53 mutants+BCLXL In. (n=5). […] To investigate if BCL-xL is preventing the standard of care from inducing apoptosis, TMZ/IR were titrated in across a panel of genetically diverse GBM lines (n=17) with a fixed dose of BCLXL inhibitor (A1155463).

With CN(C)CC#Cc1ccc(OCCCc2sc(N3CCc4cccc(C(=O)Nc5nc6ccccc6s5)c4C3)nc2C(=O)O)c(F)c1 [A1155463] the cell death (p53 mutant GBM, panel n=17 (p53 mutants n=5)) was “no added benefit” and the cell death (p53 wild type GBM, panel n=17 (p53 WT n=12)) was “significantly increase cell death; also recorded: increases cell death”.
